Test results reported in patent US11446352B2, “Compositions and methods for inhibiting tumor-induced immune suppression” (priority 2017, dated 2022).

How the values were obtained:
[1] = system: Hs587T and MDA-MB-453 cell lines; assay: autophagy, mitochondria content and mitophagy in treated cancer cells; format: cell-based, human; conditions: Hs587T and MDA-MB-453 cell lines
Text: (§1) The first bar indicates 100% folding activity of RRL without inhibitor. PR22 indicates the antibody without PR but with RRL and EnnA. PR represents the antibody (PR22) with PR but without RRL. All other samples have PR22, PR, and RRL without (first bar) or with increased concentration of EnnA. FIGS. 1C-1E are line graphs of cell survival versus EnnA concentration (μM) in breast cancer cell lines Hs578T (FIG. 1C), […] (FIG. 1D) and MDA-MB231 (FIG. 1E) upon treatment with EnnA for 48 and 72 h. […] PR alone (PR), antibody (PR22)+RRL, PR+RRL without inhibitor (RRL), PR+RRL with 1 μM 17-AAG (17AAG) PR+RRL with 10 μM BEAU or EnnA. FIGS. 1G-1I are autoradiographs of Western blots of cytosols from various cell lines treated with 17-AAG (1 μM) or EnnA (3 μM) with antibodies against the specified proteins. FIG. 1J is an autoradiograph showing EnnA causes autophagy in Hs578T and MDA-MB453 cell lines. FIGS. 1K-1N are electron microscopy micrographs showing autophagosomes and reduced mitochondria content in Hs578T cells treated with DMSO or EnnA. FIGS. 1O-1P are fluorescence micrographs showing EnnA causing reduced mitochondria content in Hs578T cells. FIGS. 1Q-1BB are fluorescence micrographs showing mitophagy in Hsp578T cells treated with EnnA as indicated by colocalization of the mitochondria marker Cox4 and the autophagy marker LC3BII.

[2] = system: Hsp90 chaperoning machine; assay: progesterone receptor (PR) refolding assay using reticulocyte lysate (RRL); format: biochemical; conditions: protein complex analysis; 10 μM EnnA, 1 μM 17-AAG
Text: as §1
A cell-free high-throughput screen (HTS) platform based on the progesterone receptor (PR) using reticulocyte lysate (RRL) as a source of molecular chaperones was used to screen 175 natural products (Patwardhan C A, et al., J Biomol Screen (2014)). This assay captures the physiological steps of PR refolding by the Hsp90 chaperoning machine and measures the recovery of its hormone-binding activities after mild heat treatment. It has the ability to identify inhibitors as well as activators of the core components of the Hsp90 chaperoning machine (i.e., Hsp90, Hsp70, Hsp40, Hsp90/Hsp70 organizing protein (HOP), and p23), including compounds that target chaperone complexes as well as individual proteins.

AB1-HA tumor = conditions: CTX treatment at Day 9; cited from earlier work
KB-3-1 cervix carcinoma = conditions: cited from earlier work
[3] = preclinical studies; cited from earlier work

Compound: C=CCNC1=C2C[C@@H](C)C[C@H](OC)[C@H](O)[C@@H](C)/C=C(\C)[C@H](OC(N)=O)[C@@H](OC)/C=C\C=C(/C)C(=O)NC(=CC1=O)C2=O [17-AAG, reference compound]
- mode of cell death (apoptosis / autophagy) [1]: induces apoptosis
- accumulation of Hsp70-rich PR complexes [2]: observed

Compound: O=P1(N(CCCl)CCCl)NCCCO1 (centres unmarked) [CTX, Cyclophosphamide]
- cure rate (AB1-HA tumor): 75%

Compound: CC(C)[C@H]1C(=O)O[C@H](C(C)C)C(=O)N(C)[C@@H](C(C)C)C(=O)O[C@H](C(C)C)C(=O)N(C)[C@@H](C(C)C)C(=O)O[C@H](C(C)C)C(=O)N1C [Enniatin B]
- reduction of tumor growth in combination with sorafenib (KB-3-1 cervix carcinoma): synergizes with sorafenib
- anti-angiogenic activity [3]: anti-angiogenic activity
